Columns and labels:
[1] = target: T1, α4β1 integrin (Jurkat cell adhesion to immobilized CS-1 derived peptide CLHPGEILDVPST) (Homo sapiens, UniProt P05556+P13612); experiment: Jurkat-CS-1 assay; format: cell-based; settings: Jurkat cells on CS-1 peptide coated plates; read-out: JK/CS-1 (Jurkat CS-1 Assay IC50 value range)
T1 construct: 100 μl of Jurkat cells (2.5×10^6 cells/ml) in DMEM plus BSA; host or cells: Jurkat T-cell line
Experimental: The CS-1 derived peptide, CLHPGEILDVPST, and the scrambled control peptide, CLHGPIELVSDPT, were synthesized on a Beckman 990 synthesizer using t-Boc methodology. The peptides were immobilized onto microtiter plates using the heterobifunctional crosslinker 3-(2-pyridyldithio)propionic acid N-hydroxysuccinimide ester (SPDP) as reported by Pierschbacher et al., Proc. Natl. Acad. USA, 80:1224-1227 (1983). Microtiter plates were coated with 20 μg/ml HSA for 2 hr. at room temperature, washed once with PBS and derivatized with 10 μg/ml SPDP for 1 hr. After washing, 100 μl of a 100 μg/ml cysteine containing peptide solution which had been recently dissolved was added to the wells and allowed to crosslink to the plates overnight at 4° C. Unbound peptide was removed from plates by washing with PBS. To block non-reacted sites, the plates are coated with 100 μl of a 2.5 mg/ml BSA solution in PBS for 1 hr. at 37° C. 100 μl of Jurkat cells (2.5×10^6 cells/ml) in DMEM plus BSA (2.5 mg/ml) was mixed with an appropriate concentration of the compound to be tested and the mixture was added to peptide coated dishes and incubated for 1 hr. at 37° C. Generally 100, 20, 5 and 1.25 μM concentrations of the compound were tested.
Following this incubation the plates were washed once with PBS and the attached cells were fixed with 3% paraformaldehyde in PBS and stained with 0.5% toluidine blue in 3.7% formaldehyde. The cells were stained overnight at room temperature and the optical density at 590 nm of toluidine blue stained cells was determined using a vertical pathway spectrophotometer to quantitate attachment (VMAX Kinetic Microplate Reader, Molecular Devices, Menlo Park, Calif.). This procedure is a modification of a previously published method (Cardarelli et al, J. Biol. Chem., 269:18668-18673 (1994) and Cardarelli et al, Proc. Natl. Acad. Sci. USA, 83:2647-2651 (1986)).

[2] = target: T2, α4β1 integrin (Jurkat T-cell adhesion to IL-1 stimulated endothelial cell monolayers) (Homo sapiens, UniProt P05556+P13612); experiment: Jurkat-endothelial cell adhesion assay (Jurkat EC); format: cell-based; settings: Jurkat cells on IL-1 stimulated human umbilical vein endothelial cells; read-out: JK/EC (Jurkat EC Assay IC50 value range)
T2 construct: a T-cell line, Jurkat, known to express the α4β1 integrin; host or cells: Jurkat T-cell line
Experimental: Jurkat-endothelial Cell Adhesion Assay:
The following assay established the activity of the present compounds in inhibiting β1-mediated cell adhesion in a representative in vitro system. This assay measures the adhesive interactions of a T-cell line, Jurkat, known to express the α4β1 integrin, to endothelial monolayers in the presence of test compounds. The test compounds were added in increasing concentrations to T-cells and then the T-cell compound mixture was added to IL-1 stimulated endothelial cell monolayers. The plates were incubated, washed and the percentage of attached cells was quantitated.
Human umbilical vein endothelial cells were purchased from Clonetics (San Diego, Calif.) at passage number 2. The cells were grown on 0.5% porcine skin gelatin pre-coated flasks (Sigma, St. Louis Mo.) in EGM-UV media (Clonetics, San Diego, Calif.) supplemented with 10% fetal bovine serum. Cells are refed every 2-3 days reaching confluence by day 4 to 6. […] The endothelial cells are not used following passage 6.
The T-cell line Jurkat was obtained from American Type Tissue Culture Collection (Rockville, Md.) and the cells were cultured in RPMI containing 10% fetal calf serum. The cells were washed twice in Hank's Balanced Salt Solution (HBSS) and resuspended in Dulbecco's Minimal Eagle's Media (DMEM) containing 2.5 mg/ml Human Serum Albumin (HSA). Jurkat cells (1×10^6 cells/ml) were stained with 10 ng/ml BCECF-AM (Molecular Probes, Eugene, Oreg.)) in HBSS without phenol red. The cells were loaded with BCECF for 60 minutes in the dark at 370C, washed 2 times, and resuspended in DMEM-HSA solution.
Confluent endothelial monolayers, grown in 96-well tissue culture plates, were stimulated for 4 hr. at 37° C. with 0.1 ng/ml (˜50 U/ml) recombinant IL-1 (Amgen, Thousand Oaks, Calif.). Following this incubation, the monolayers were washed twice with HBSS and 0.1 ml of DMEM−HSA solution was added. Jurkat cells (5×10^5 cells) were combined with the appropriate concentration of the test compound and 0.1 ml of the Jurkat cell-compound mixture was added to the endothelial cell monolayers. Generally, 100, 20, 5 and 1.25 μM compound concentrations were tested. […] The plates were placed on ice for 5 minutes to allow for Jurkat cell settling and the plates were incubated at 37° C. for 20 minutes. Following this incubation, the monolayers were washed twice with PBS containing 1 mM calcium chloride and 1 mM magnesium chloride and the plates were read using a Millipore Cytofluor 2300 (Marlboro, Mass.). Fluorescence in each well was measured as Arbitrary Fluorescence Units and percent adhesion in the absence of compound was adjusted to 100% and the % adhesion in the presence of compound was calculated. Monolayers were also fixed in 3% paraformaldehyde and evaluated microscopically to verify the adhesion. This procedure is a modification of a previously published method (Cardarelli et al., J. Biol. Chem. 269:18668-18673 (1994)).

T2 sequence (P13612 34-1032): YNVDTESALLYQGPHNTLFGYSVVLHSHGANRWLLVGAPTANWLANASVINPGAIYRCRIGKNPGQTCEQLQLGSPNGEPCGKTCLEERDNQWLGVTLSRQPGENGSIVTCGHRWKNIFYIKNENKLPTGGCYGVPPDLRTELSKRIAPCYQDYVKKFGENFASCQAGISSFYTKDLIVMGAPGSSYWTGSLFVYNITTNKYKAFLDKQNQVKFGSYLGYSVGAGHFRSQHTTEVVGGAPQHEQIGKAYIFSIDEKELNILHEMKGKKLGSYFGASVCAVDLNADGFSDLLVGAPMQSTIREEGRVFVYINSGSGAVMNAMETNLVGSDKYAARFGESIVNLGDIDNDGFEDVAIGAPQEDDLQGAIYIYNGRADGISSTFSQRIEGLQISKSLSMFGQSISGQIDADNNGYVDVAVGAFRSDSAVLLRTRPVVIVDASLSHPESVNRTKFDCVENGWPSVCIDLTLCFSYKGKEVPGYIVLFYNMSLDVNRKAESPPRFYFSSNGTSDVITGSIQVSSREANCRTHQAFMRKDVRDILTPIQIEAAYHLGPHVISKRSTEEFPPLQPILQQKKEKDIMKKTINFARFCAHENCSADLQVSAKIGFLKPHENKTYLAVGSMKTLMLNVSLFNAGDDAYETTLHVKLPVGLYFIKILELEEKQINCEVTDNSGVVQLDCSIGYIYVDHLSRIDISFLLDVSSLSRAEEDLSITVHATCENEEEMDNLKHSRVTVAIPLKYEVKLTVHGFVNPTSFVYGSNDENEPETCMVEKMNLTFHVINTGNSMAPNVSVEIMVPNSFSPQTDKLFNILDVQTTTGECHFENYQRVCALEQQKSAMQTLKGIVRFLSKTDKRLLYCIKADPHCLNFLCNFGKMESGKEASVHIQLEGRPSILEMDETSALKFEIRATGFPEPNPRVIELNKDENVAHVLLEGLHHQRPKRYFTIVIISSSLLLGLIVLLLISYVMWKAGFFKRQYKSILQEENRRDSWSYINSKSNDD
T2 sequence (P05556 21-798): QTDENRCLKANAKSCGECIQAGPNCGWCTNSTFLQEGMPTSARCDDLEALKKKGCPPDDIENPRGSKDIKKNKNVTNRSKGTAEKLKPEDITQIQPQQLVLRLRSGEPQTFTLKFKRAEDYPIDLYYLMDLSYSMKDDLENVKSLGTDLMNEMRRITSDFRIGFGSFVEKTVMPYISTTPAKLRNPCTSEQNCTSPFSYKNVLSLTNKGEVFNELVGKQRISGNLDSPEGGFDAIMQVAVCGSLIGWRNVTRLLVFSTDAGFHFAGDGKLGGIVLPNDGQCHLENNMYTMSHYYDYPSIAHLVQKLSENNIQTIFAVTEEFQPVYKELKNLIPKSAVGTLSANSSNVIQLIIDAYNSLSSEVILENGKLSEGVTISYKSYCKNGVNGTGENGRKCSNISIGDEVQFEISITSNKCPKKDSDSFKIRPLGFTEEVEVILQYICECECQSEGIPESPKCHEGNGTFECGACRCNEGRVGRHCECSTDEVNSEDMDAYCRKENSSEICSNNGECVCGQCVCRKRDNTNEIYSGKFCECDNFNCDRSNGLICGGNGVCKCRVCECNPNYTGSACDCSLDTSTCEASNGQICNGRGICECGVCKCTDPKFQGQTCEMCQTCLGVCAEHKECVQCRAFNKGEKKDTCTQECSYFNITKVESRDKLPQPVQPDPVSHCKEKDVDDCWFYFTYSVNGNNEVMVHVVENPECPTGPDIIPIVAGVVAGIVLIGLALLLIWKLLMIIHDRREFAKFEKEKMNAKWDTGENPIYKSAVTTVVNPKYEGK
T1 sequence (P13612 34-1032): as the sequence (P13612 34-1032) above
T1 sequence (P05556 21-798): as the sequence (P05556 21-798) above

Structure (SMILES)	IC50 [1] [nM]	IC50 [2] [nM]
COC(=O)[C@H](Cc1ccc(NC(=O)c2c(Cl)cccc2Cl)cc1)NC(=O)[C@H]1CSCN1C(=O)OC(C)(C)C (relative stereo) [Example 1, [S-(R*,R*)]-4-[[[1-[[4-[(2,6-Dichlorobenzoyl)amino]phenyl]methyl]-2-methoxy-2-oxoethyl]amino]carbonyl]-3-thiazolidinecarboxylic Acid 3-(1,1-Dimethylethyl)ester]	50 to 750	≥ 1000
CCOC(=O)N1CSC[C@@H]1C(=O)N[C@@H](Cc1ccc(NC(=O)c2c(Cl)cccc2Cl)cc1)C(=O)OC (relative stereo) [Example 4, [S-(R*,R*)]-4-[[[1-[[4-[(2,6-Dichlorobenzoyl)amino]phenyl]methyl]-2-methoxy-2-oxoethyl]amino]carbonyl]-3-thiazolidinecarboxylic Acid 3-Ethyl Ester]	≤ 50	≤ 250
COC(=O)[C@H](Cc1ccc(OCc2c(Cl)cccc2Cl)cc1)NC(=O)[C@H]1CSCN1C(=O)OCCN1CCCCC1 (relative stereo) [Example 5, [S-(R*,R*)]-4-[[[1-[4-[(2,6-Dichlorophenyl)methoxy]phenyl)methyl]-2-methoxy-2-oxoethyl]amino]carbonyl]-3-thiazolidinecarboxylic Acid 3-[2-(1-piperidinyl)ethyl]ester]	50 to 750	250 to 1000
COC(=O)CCC(=O)N1CSC[C@@H]1C(=O)N[C@@H](Cc1ccc(NC(=O)c2c(Cl)cccc2Cl)cc1)C(=O)OC (relative stereo) [Example 8, [S-(R*,R*)]-4-[[[1-[[4-[(2,6-Dichlorobenzoyl)amino]phenyl]methyl]-2-methoxy-2-oxoethyl]amino]carbonyl]-γ-oxo-3-thiazolidinebutanoic Acid 3-Methyl Ester]	50 to 750	250 to 1000
O=C(O)CCC(=O)N1CSC[C@@H]1C(=O)N[C@@H](Cc1ccc(NC(=O)c2c(Cl)cccc2Cl)cc1)C(=O)O (relative stereo) [Example 9, [S-(R*,R*)]-4-[[[1-Carboxy-2-[4-[(2,6-dichlorobenzoyl)amino]phenyl]ethyl]amino]carbonyl]-γ-oxo-3-thiazolidinebutanoic Acid]	≤ 50	≤ 250
CC(C)(C)OC(=O)N1CSC[C@@H]1C(=O)N[C@@H](Cc1ccc(NC(=O)c2c(Cl)cccc2Cl)cc1)C(=O)O (relative stereo) [Example 10, [S-(R*,R*)]-4-[[[1-Carboxy-2-[4-[(2,6-dichlorobenzoyl)amino]phenyl]ethyl]amino]carbonyl]-3-thiazolidinecarboxylic Acid 3-(1,1-Dimethylethyl)ester]	≤ 50	≤ 250
CCOC(=O)N1CSC[C@H]1C(=O)N[C@@H](Cc1ccc(NC(=O)c2c(Cl)cccc2Cl)cc1)C(=O)OC (relative stereo) [Example 15, [R-(R*,S*)]-4-[[[1-[[4-[(2,6-Dichlorobenzoyl)amino]phenyl]methyl]-2-methoxy-2-oxoethyl]amino]carbonyl]-3-thiazolidinecarboxylic Acid 3-Ethyl Ester]	≥ 750	≥ 1000
CCOC(=O)N1CSC[C@H]1C(=O)N[C@@H](Cc1ccc(NC(=O)c2c(Cl)cccc2Cl)cc1)C(=O)O (relative stereo) [Example 16, [R-(R*,S*)]-4-[[[1-Carboxy-2-[4-[(2,6-dichlorobenzoyl)amino]phenyl]ethyl]amino]carbonyl]-3-thiazolidinecarboxylic Acid 3-Ethyl Ester]	50 to 750	≤ 250
COC(=O)[C@H](Cc1ccc(NC(=O)c2c(Cl)cccc2Cl)cc1)NC(=O)[C@H]1N(C(=O)OC(C)(C)C)CSC1(C)C (relative stereo) [Example 17, [R-(R*,S*)]-4-[[[1-[[4-[(2,6-Dichlorobenzoyl)amino]phenyl]methyl]-2-methoxy-2-oxoethyl]amino]carbonyl]-5,5-dimethyl-3-thiazolidinecarboxylic Acid 3-(1,1-Dimethylethyl)ester]	≥ 750	≥ 1000
COC(=O)[C@H](Cc1ccc(NC(=O)c2c(Cl)cccc2Cl)cc1)NC(=O)[C@H]1CSCN1C(=O)OCC1c2ccccc2-c2ccccc21 (relative stereo) [Example 18]	≥ 750	≥ 1000
O=C(Nc1ccc(C[C@H](NC(=O)[C@H]2CSCN2C(=O)OCC2c3ccccc3-c3ccccc32)C(=O)O)cc1)c1c(Cl)cccc1Cl (relative stereo) [Example 19]	50 to 750	≤ 250
COC(=O)[C@H](Cc1ccc(NC(=O)c2c(Cl)cccc2Cl)cc1)NC(=O)[C@H]1CSCN1C(=O)OCc1ccccc1 (relative stereo) [Example 20, [S-(R*,R*)]-4-[[[1-[[4-[(2,6-Dichlorobenzoyl)amino]phenyl]methyl]-2-methoxy-2-oxoethyl]amino]carbonyl]-3-thiazolidinecarboxylic Acid 3-Phenylmethyl Ester]	≥ 750	≥ 1000
O=C(Nc1ccc(C[C@H](NC(=O)[C@H]2CSCN2C(=O)OCc2ccccc2)C(=O)O)cc1)c1c(Cl)cccc1Cl (relative stereo) [Example 21, [S-(R*,R*)]-4-[[[1-Carboxy-2-[4-[(2,6-dichlorobenzoyl)amino]phenyl]ethyl]amino]carbonyl]-3-thiazolidinecarboxylic Acid 3-Phenylmethyl Ester]	50 to 750	≤ 250
COC(=O)[C@H](Cc1ccc(NC(=O)c2c(Cl)cccc2Cl)cc1)NC(=O)[C@H]1CSCN1C(=O)OC12CC3CC(CC(C3)C1)C2 (relative stereo) [Example 22, [S-(R*,R*)]-4-[[[1-[[4-[(2,6-Dichlorobenzoyl)amino]phenyl]methyl]-2-methoxy-2-oxoethyl]amino]carbonyl]-3-thiazolidinecarboxylic Acid 3-(Tricyclo[3.3.1.1^3,7]dec-1-yl)ester]	≥ 750	≥ 1000
O=C(Nc1ccc(C[C@H](NC(=O)[C@H]2CSCN2C(=O)OC23CC4CC(CC(C4)C2)C3)C(=O)O)cc1)c1c(Cl)cccc1Cl (relative stereo) [Example 23, [S-(R*,R*)]-4-[[[1-Carboxy-2-[4-[(2,6-dichlorobenzoyl)amino]phenyl]ethyl]amino]carbonyl]-3-thiazolidinecarboxylic Acid 3-(Tricyclo[3.3.1.1^3,7]dec-1-yl)ester]	≤ 50	≤ 250
NC(=O)[C@H](Cc1ccc(NC(=O)c2c(Cl)cccc2Cl)cc1)NC(=O)[C@H]1CSCN1C(=O)OCCN1CCOCC1 [Example 288, (4S)-4-[[[(1S)-2-Amino-1-[[4-[(2,6-dichlorobenzoyl)amino]phenyl]methyl]-2-oxoethyl]amino]carbonyl]-3-thiazolidinecarboxylic Acid 3-[2-(4-Morpholinyl)ethyl]ester]	≥ 750	

From patent publication US6685617B1, “Inhibitors of α4β1 mediated cell adhesion” (Pharmacia & Upjohn Company, priority 1998, dated 2004)
